melting point: 174 to 176 °C
Compound: CC(=O)Nc1nc(CC(=O)Nc2ncc(C(C)C)s2)cs1 [2-[2-(acetylamino)-1,3-thiazol-4-yl]-N-(5-isopropyl-1,3-thiazol-2-yl)acetamide]

Source: US6784198B1, “Arylmethyl-carbonylamino-thiazole derivatives and their use as antitumor agents” (Pharmacia Italia S.p.A., priority 1999, dated 2004)
